Reference: ChEMBL document CHEMBL5113511, “Discovery of Small-Molecule Degraders of the CDK9-Cyclin T1 Complex for Targeting Transcriptional Addiction in Prostate Cancer” (J Med Chem, 2022)
pIC50: −log10 of the molar value. Each block holds one compound with its values, some of them ahead of it. Activity calls are given as the source filed them. The calls are words filed in the database; no cut-off is given here.

Tests used:
[1] = molecular target: T1, Cyclin-dependent kinase 9 (Homo sapiens, UniProt P50750); experiment: Induction of HyT-mediated degradation of CDK9 in human 22Rv1 cells at 0.3 to 3 uM incubated for 24 hrs by immunoblot analysis; assay type: cell-based; settings: dose 0.3-3 µM
Cyclin-T1 [2] = molecular target: T2, Cyclin-T1 (Homo sapiens, UniProt O60563); experiment: Induction of HyT-mediated degradation of Cyclin T1 in human 22Rv1 cells assessed as reduction in Cyclin T1 level at 3 uM incubated for 24 hrs by immunoblot analysis; assay type: cell-based
Cyclin-T1 [3] = molecular target: T2, Cyclin-T1; experiment: Induction of HyT-mediated degradation of Cyclin T1 in human 22Rv1 cells at 3 uM incubated for 24 hrs by immunoblot analysis relative to control; assay type: cell-based
[4] = molecular target: T1, Cyclin-dependent kinase 9; experiment: Induction of HyT-mediated degradation of CDK9 in human 22Rv1 cells at 3 uM incubated for 24 hrs by immunoblot analysis relative to control; assay type: cell-based
CWR22R [5] = experiment: Induction of cell cycle arrest in human 22Rv1 cells assessed as accumulation of cells at G1 phase at 0.3 to 1 uM incubated for 24 hrs by propidium iodide staining based flow cytometry; assay type: functional; settings: dose 0.3-1 µM
CWR22R [6] = experiment: Upregulation of […] protein expression in human 22Rv1 cells at 2 uM incubated for 24 hrs by DIA-based proteomics analysis; assay type: functional, cell-based
CWR22R [7] = experiment: Downregulation of cyclin D1 protein expression in human 22Rv1 cells at 2 uM incubated for 24 hrs by DIA-based proteomics analysis; assay type: functional, cell-based
CWR22R [8] = experiment: Induction of cell cycle arrest in human 22Rv1 cells assessed as accumulation of cells at sub-G1 phase at 0.3 to 1 uM incubated for 24 hrs by propidium iodide staining based flow cytometry; assay type: functional; settings: dose 0.3-1 µM
CWR22R [9] = experiment: Antiproliferative activity against human 22Rv1 cells assessed as reduction in cell viability measured after 5 days by CellTiter-Glo assay; assay type: functional, cell-based; settings: 22Rv1, 120 h
CWR22R [10] = experiment: Induction of apoptosis in human 22Rv1 cells at 0.3 to 1 uM incubated for 24 hrs by AnnexinV-FITC/PI staining based flow cytometry; assay type: functional, cell-based; settings: dose 0.3-1 µM
Cyclin-T1 [11] = molecular target: T2, Cyclin-T1; experiment: Induction of degradation of Cyclin T1 in human 22Rv1 cells at 3 uM measured for 36 hrs by DIA-based proteomics analysis; assay type: cell-based
[12] = molecular target: T1, Cyclin-dependent kinase 9; experiment: Induction of CDK9 degradation in human 22Rv1 cells at 3 uM incubated for 24 hrs by DIA-based proteomics analysis; assay type: cell-based
[13] = molecular target: T1, Cyclin-dependent kinase 9; experiment: Induction of CDK9 degradation in human 22Rv1 cells assessed as inhibition of Ser2 phosphorylation of RNA Pol II CTD at 0.3 to 3 uM incubated for 24 hrs by immunoblot analysis; assay type: cell-based; settings: dose 0.3-3 µM
[14] = molecular target: T1, Cyclin-dependent kinase 9; experiment: Induction of degradation of CDK9 in human 22Rv1 cells assessed as reduction in CDK9 level at 2 uM measured after 9 hrs by immunoblot analysis; assay type: cell-based
Cyclin-T1 [15] = molecular target: T2, Cyclin-T1; experiment: Induction of Cyclin T1 degradation in human 22Rv1 cells assessed as cyclin T1 level at 3 uM incubated for 24 hrs by DIA-based proteomics analysis; assay type: cell-based
[16] = molecular target: Cyclin-dependent kinase 1 (Homo sapiens) (UniProt P06493); experiment: Induction of CDK1 degradation in human 22Rv1 cells assessed as downregulation of CDK1 level at 3 uM measured after 12 hrs by DIA-based proteomics analysis; assay type: cell-based
[17] = molecular target: Cyclin-dependent kinase 6 (Homo sapiens) (UniProt Q00534); experiment: Induction of CDK6 degradation in human 22Rv1 cells assessed as downregulation of CDK6 level at 3 uM measured after 12 hrs by DIA-based proteomics analysis; assay type: cell-based
[18] = molecular target: T1, Cyclin-dependent kinase 9; experiment: Induction of CDK9 degradation in human 22Rv1 cells assessed as decrease in cyclin A2 protein expression at 3 uM measured for 36 hrs by DIA-based proteomics analysis; assay type: cell-based
[19] = molecular target: Cyclin-dependent kinase 11B (Homo sapiens) (UniProt P21127); experiment: Induction of CDK11B degradation in human 22Rv1 cells at 3 uM measured after 36 hrs by DIA-based proteomics analysis; assay type: cell-based
[20] = molecular target: Cyclin-dependent kinase 7 (Homo sapiens) (UniProt P50613); experiment: Induction of CDK7 degradation in human 22Rv1 cells assessed as downregulation of CDK7 level at 3 uM measured after 12 hrs by DIA-based proteomics analysis; assay type: cell-based
[21] = molecular target: Cyclin-dependent kinase 4 (Homo sapiens) (UniProt P11802); experiment: Induction of CDK4 degradation in human 22Rv1 cells assessed as downregulation of CDK4 level at 3 uM measured after 12 hrs by DIA-based proteomics analysis; assay type: cell-based
[22] = molecular target: T1, Cyclin-dependent kinase 9; experiment: Induction of degradation of CDK9 in human 22Rv1 cells at 2 uM measured after 0 to 7 hrs by immunoblot analysis; assay type: cell-based; settings: time 0-7 hrs
[23] = molecular target: T1, Cyclin-dependent kinase 9; experiment: Induction of degradation of CDK9 in human 22Rv1 cells at 3 uM measured for 36 hrs by DIA-based proteomics analysis; assay type: cell-based
[24] = molecular target: T1, Cyclin-dependent kinase 9; experiment: Induction of CDK9 degradation in human 22Rv1 cells assessed as decrease in cyclin D1 protein expression at 3 uM measured for 36 hrs by DIA-based proteomics analysis; assay type: cell-based
[25] = molecular target: T1, Cyclin-dependent kinase 9; experiment: Induction of CDK9 degradation in human 22Rv1 cells assessed as decrease in cyclin C protein expression at 3 uM measured for 36 hrs by DIA-based proteomics analysis; assay type: cell-based
CWR22R [26] = experiment: Inhibition of colony formation in human 22Rv1 cells at 100 to 200 nM treated for 14 days with replacement with fresh medium containing compound for every 48 hrs by crystal violet staining based analysis; assay type: functional, cell-based; settings: dose 100-200 nM, time 14.0 day
[27] = molecular target: T1, Cyclin-dependent kinase 9; experiment: Induction of CDK9 degradation in human 22Rv1 cells assessed as downregulation of MCL1 protein expression at 0.3 to 3 uM incubated for 24 hrs by immunoblot analysis; assay type: cell-based; settings: dose 0.3-3 µM
[28] = molecular target: T1, Cyclin-dependent kinase 9; experiment: Induction of CDK9 degradation in human 22Rv1 cells assessed as downregulation of AR protein expression at 3 uM measured for 36 hrs by DIA-based proteomics analysis; assay type: cell-based
CWR22R [29] = experiment: Downregulation of CCNT1 mRNA expression in human 22Rv1 cells at 2 uM incubated for 24 hrs by transcriptome RNA-seq analysis; assay type: functional, cell-based
[30] = molecular target: T1, Cyclin-dependent kinase 9; experiment: Induction of CDK9 degradation in human 22Rv1 cells assessed as decrease in cyclin B1 protein expression at 3 uM measured for 36 hrs by DIA-based proteomics analysis; assay type: cell-based
Cyclin-T1 [31] = molecular target: T2, Cyclin-T1; experiment: Induction of HyT-mediated degradation of Cyclin T1 in human 22Rv1 cells at 0.3 to 3 uM incubated for 24 hrs by immunoblot analysis; assay type: cell-based; settings: dose 0.3-3 µM
[32] = molecular target: T1, Cyclin-dependent kinase 9; experiment: Induction of HyT-mediated degradation of CDK9 in human 22Rv1 cells assessed as reduction in CDK9 protein level at 3 uM incubated for 24 hrs by immunoblot analysis relative to control; assay type: cell-based; parameters: scale not given: the % may be the effect or the level left

T2 sequence (O60563 whole entry): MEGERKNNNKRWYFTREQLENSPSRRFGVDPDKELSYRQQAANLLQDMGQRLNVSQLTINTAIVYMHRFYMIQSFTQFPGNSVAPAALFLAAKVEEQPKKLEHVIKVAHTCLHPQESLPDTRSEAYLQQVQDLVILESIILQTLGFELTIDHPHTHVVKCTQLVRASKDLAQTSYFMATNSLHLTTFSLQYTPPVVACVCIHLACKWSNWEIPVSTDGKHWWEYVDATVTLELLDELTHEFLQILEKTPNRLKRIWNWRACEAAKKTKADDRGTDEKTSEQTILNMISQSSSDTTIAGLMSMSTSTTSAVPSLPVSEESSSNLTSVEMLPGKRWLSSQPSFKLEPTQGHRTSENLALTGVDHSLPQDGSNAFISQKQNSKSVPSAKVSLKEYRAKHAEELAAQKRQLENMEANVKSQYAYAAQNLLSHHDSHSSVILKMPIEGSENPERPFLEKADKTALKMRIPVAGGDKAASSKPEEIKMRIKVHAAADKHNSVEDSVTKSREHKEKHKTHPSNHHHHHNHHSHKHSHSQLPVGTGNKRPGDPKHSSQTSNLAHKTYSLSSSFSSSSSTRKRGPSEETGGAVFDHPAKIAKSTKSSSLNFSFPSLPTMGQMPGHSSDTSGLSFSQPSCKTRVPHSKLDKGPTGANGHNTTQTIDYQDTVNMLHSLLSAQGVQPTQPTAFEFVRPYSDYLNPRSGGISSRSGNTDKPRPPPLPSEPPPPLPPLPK
T1 sequence (P50750 whole entry): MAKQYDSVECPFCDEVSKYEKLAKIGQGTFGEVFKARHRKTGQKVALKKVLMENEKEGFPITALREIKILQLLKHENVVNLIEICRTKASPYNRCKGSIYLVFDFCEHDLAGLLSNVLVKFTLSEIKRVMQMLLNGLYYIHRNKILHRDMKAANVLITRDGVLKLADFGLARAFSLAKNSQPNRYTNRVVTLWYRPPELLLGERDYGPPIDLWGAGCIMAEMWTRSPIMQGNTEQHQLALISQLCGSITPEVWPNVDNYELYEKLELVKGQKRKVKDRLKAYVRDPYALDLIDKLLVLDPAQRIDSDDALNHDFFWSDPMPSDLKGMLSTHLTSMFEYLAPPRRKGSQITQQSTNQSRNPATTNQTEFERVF
Sequence of Cyclin-dependent kinase 1 (Homo sapiens) (P06493 whole entry, looked up): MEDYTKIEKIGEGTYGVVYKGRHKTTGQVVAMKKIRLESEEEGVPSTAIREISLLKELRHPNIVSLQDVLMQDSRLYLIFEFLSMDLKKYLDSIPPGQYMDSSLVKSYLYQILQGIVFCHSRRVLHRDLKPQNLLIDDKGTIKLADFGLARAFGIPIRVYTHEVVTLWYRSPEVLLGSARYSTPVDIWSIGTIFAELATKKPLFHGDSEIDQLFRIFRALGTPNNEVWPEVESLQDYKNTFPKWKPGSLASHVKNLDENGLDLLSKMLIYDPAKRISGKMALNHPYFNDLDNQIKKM
Sequence of Cyclin-dependent kinase 11B (Homo sapiens) (P21127 whole entry): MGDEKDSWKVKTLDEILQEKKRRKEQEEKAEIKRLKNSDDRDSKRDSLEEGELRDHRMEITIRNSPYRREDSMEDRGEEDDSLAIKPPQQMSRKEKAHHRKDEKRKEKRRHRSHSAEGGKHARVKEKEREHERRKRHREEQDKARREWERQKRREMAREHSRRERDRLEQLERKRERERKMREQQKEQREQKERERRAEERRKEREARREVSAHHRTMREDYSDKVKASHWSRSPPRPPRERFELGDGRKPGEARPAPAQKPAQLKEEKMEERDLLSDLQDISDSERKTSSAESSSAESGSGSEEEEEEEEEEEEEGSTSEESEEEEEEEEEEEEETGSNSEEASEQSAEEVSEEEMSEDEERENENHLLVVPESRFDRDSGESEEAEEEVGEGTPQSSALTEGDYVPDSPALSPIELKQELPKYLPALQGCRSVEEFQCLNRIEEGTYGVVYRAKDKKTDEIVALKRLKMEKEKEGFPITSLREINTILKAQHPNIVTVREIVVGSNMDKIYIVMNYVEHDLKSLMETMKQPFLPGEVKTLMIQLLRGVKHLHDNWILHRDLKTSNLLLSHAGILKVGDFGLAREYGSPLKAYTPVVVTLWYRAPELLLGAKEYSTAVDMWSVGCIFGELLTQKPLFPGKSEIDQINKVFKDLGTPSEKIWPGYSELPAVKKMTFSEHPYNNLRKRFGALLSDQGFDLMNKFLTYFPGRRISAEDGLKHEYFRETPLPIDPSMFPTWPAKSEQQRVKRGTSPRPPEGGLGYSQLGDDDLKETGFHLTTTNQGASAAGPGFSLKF
Sequence of Cyclin-dependent kinase 7 (Homo sapiens) (P50613 whole entry): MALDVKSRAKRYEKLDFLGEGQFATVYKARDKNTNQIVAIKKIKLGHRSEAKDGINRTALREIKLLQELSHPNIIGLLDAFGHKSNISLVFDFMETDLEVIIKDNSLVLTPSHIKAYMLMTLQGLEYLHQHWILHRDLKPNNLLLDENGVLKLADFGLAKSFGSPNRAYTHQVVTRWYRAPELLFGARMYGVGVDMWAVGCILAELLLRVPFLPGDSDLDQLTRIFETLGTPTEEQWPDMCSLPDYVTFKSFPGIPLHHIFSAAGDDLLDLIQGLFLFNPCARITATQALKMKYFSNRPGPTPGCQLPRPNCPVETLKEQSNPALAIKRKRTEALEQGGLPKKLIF
Sequence of Cyclin-dependent kinase 4 (Homo sapiens) (P11802 whole entry): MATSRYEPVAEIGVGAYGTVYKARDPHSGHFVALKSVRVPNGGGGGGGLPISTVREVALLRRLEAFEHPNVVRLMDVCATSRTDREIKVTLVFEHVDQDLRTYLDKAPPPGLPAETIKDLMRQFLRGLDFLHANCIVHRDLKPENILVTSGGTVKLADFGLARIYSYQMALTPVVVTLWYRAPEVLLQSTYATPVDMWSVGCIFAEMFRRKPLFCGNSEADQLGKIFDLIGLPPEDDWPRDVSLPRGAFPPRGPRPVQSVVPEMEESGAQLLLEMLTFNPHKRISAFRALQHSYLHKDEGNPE
Sequence of Cyclin-dependent kinase 6 (Homo sapiens) (Q00534 whole entry): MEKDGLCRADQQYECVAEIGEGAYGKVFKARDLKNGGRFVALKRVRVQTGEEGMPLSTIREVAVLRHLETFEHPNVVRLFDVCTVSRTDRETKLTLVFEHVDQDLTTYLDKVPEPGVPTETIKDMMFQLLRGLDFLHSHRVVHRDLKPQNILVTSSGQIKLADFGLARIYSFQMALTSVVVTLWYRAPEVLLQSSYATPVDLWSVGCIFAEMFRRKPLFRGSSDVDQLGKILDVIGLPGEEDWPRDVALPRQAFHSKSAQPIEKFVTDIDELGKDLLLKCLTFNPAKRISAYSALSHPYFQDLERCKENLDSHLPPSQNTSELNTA

SMILES: CC(C)(C)c1cnc(CSc2cnc(NC(=O)C3CCNCC3)s2)o1 [BMS-387032]
Activity (CWR22R [5]): Active
Activity (CWR22R [6]): Active
inhibition (CWR22R [7]): Active
Activity (CWR22R [8]): Active
pIC50 (CWR22R [9]): 6.42
Activity (CWR22R [10]): Active

SMILES: CC(C)(C)c1cnc(CSc2cnc(NC(=O)C3CCN(CC(=O)NCCOCCOCCOCCNc4cccc5c4C(=O)N(C4CCC(=O)NC4=O)C5=O)CC3)s2)o1 (stereo not given)
Activity (CWR22R [5]): Active
Activity (Cyclin-T1 [11]): Active
Activity [12]: Active
Activity [13]: Active
Activity [14]: Active
Activity (Cyclin-T1 [15]): 40.2%
Activity [16]: Active
Activity [17]: Active
Activity (CWR22R [8]): Active
Activity [18]: Active
Activity [19]: Active
Activity [20]: Active
Activity [21]: Active
Activity [22]: Active
Activity [23]: Active
Activity [24]: Active
Activity [25]: Active
inhibition (CWR22R [26]): Active
pIC50 (CWR22R [9]): 7.31
Activity (CWR22R [10]): Active
Activity [27]: Active
Activity [28]: Active
inhibition (CWR22R [29]): Active
Activity [30]: Active

SMILES: CC(C)(C)c1cnc(CSc2cnc(NC(=O)C3CCN(S(=O)(=O)CCNC(=O)NC45CC6CC(CC(C6)C4)C5)CC3)s2)o1
Activity (Cyclin-T1 [31]): Active
Activity [1]: Active

SMILES: CC(C)[C@@H]1CC[C@@H](C)C[C@H]1OCC(=O)NCCN1CCC(C(=O)Nc2ncc(SCc3ncc(C(C)(C)C)o3)s2)CC1
Activity (Cyclin-T1 [31]): Active
Activity [1]: Active

SMILES: CC(C)[C@@H]1CC[C@@H](C)C[C@H]1OCC(=O)N1CCN(CCS(=O)(=O)N2CCC(C(=O)Nc3ncc(SCc4ncc(C(C)(C)C)o4)s3)CC2)CC1
Activity [32]: > 50%

Continued, values first:

Activity [1]: Active
Activity (Cyclin-T1 [2]): Active
SMILES: CC(C)[C@@H]1CC[C@@H](C)C[C@H]1OCC(=O)NCCOCCS(=O)(=O)N1CCC(C(=O)Nc2ncc(SCc3ncc(C(C)(C)C)o3)s2)CC1

Activity (Cyclin-T1 [3]): < 40%
Activity [4]: < 40%
SMILES: CC(C)[C@@H]1CC[C@@H](C)C[C@H]1OCC(=O)NCCCOCCS(=O)(=O)N1CCC(C(=O)Nc2ncc(SCc3ncc(C(C)(C)C)o3)s2)CC1

Activity (Cyclin-T1 [31]): Active
Activity [1]: Active
SMILES: CC(C)(C)c1cnc(CSc2cnc(NC(=O)C3CCN(S(=O)(=O)CCNC(=O)CC45CC6CC(CC(C6)C4)C5)CC3)s2)o1

Activity (Cyclin-T1 [31]): Active
Activity [1]: Active
SMILES: CC(C)[C@@H]1CC[C@@H](C)C[C@H]1OCC(=O)NCCCCN1CCC(C(=O)Nc2ncc(SCc3ncc(C(C)(C)C)o3)s2)CC1

Activity (Cyclin-T1 [31]): Active
Activity [1]: Active
SMILES: CC(C)(C)OC(=O)NC(=NCCC[C@@H](NC(=O)OC(C)(C)C)C(=O)NCCS(=O)(=O)N1CCC(C(=O)Nc2ncc(SCc3ncc(C(C)(C)C)o3)s2)CC1)NC(=O)OC(C)(C)C
